Reference: patent US4847256A, “4,5-dihydro and 4,5,6,7-tetrahydropyrazolo(1,5-A)-pyrimidines” (American Cyanamid Company, priority 1986, dated 1989)

Experiments:
[1] = system: brain-specific receptors (benzodiazepine binding); test: Inhibition of the binding of 3H-benzodiazepine to brain-specific receptors of rats; set-up: species or system rat (Wistar); settings: 3H-diazepam (1.5 nM) or 3H-flunitrazepam (1.0 nM), rat cortex P2 fraction, pH 7.4, 30 minutes in ice; 12% or more = active; test concentration not given
Excerpt: Still another test utilized for the determination of anxiolytic activity is the measurement of the ability of a test compound to inhibit the binding of tritiated benzodiazepines to brain-specific receptors of mammals. A modification of the method described by R. F. Squires, et al., Nature, 266, No. 21:732 (April, 1977) and H. Mohler, et al., Science, 198:849 (1977) was employed.
Male albino rats (Wistar strain, weighing 150-200 g each) were used. The test compounds were solubilized in dimethylformamide, acetic acid, ethanol or hydrochloric acid.
Whole cortex of rats was homogenized gently in 20 volumes of ice-cold 0.32 M sucrose, centrifuged twice at 1000 g for 10 minutes and then recentrifuged at 30,000 g for 20 minutes to produce a crude P2 -synaptosomal fraction. The P2 -fraction was either: (1) resuspended in twice the original volume in hypotonic 50 mM Tris.HCl (pH 7.4), or (2) resuspended in one-half the original volume in hypotonic 10 mM Tris.HCl (pH 7.4) and frozen (-20° C.) until time of use. Frozen P2 preparations were thawed and resuspended in four times the original homogenizing volume at time of assay.
The binding assay consisted of 300 μl of the P2 -fraction suspension (0.2-0.4 mg protein), 100 μl of test drug and 100 μl of ^3 H-diazepam (1.5 nM, final concentration) or ^3 H-flunitrazepam (1.0 nM, final concentration) which was added to 1.5 ml of […] Tris.HCl (pH 7.4). Nonspecific binding controls and total binding controls received 100 μl of diazepam (3 μM final concentration) and 100 μl of deionized water, respectively, in place of the test compound. Incubation for 30 minutes proceeded in ice and was terminated by filtration, under vacuum, through glass fiber filters. The filters were washed twice with 5 ml of ice-cold 50 mM Tris.HCl (pH 7.4) and placed in scintillation vials. After drying at 50°-60° C. for 30 minutes, 10 ml of diluent was added and the radioactivity determined in a scintillation counter.
Inhibition of binding was calculated by the difference between total binding and binding in the presence of test compound, divided by the total binding, ×100. Physiological activity can be shown by a test compound that inhibits ^3 H-benzodiazepine binding by 12% or more.

[2] = system: rats (stress induced immobility); test: Stress Induced Immobility Test; format: in vivo, rat; settings: 25 mg/kg intraperitoneally, 15 minutes at 44.5° C.; control 200 seconds
Description: The compounds of this invention are active as antidepressant agents in warm-blooded animals as evidenced by their results when tested in the Stress Induced Immobility Test. In this test, rats were confined on a warm (44.5° C.), but aversive, surface for 15 minutes. After 5-6 minutes, control rats began to show episodes of behavior where they remained flat and immobile for periods of time. The total duration of this behavior was timed. The average duration of immobility in the control rats was 200 seconds. The test compounds were administered intraperitoneally at 25 mg/kg of body weight. A compound was considered active if the maximum duration time was <100 seconds (less than 50% of the control value) in more than 50% of the rats.

[3] = system: spontaneously hypertensive rats of the Okamoto strain; test: Reduction of mean arterial blood pressure in spontaneously hypertensive rats; format: in vivo, rat (Okamoto strain; settings: 100 mg/kg or less by gavage, two doses 24 h apart; MABP at 28 hours; number of rats in parentheses in cell; untreated average 160±1.5 mm Hg
Description: Certain of the novel compounds of the present invention are active hypotensive agents at nontoxic doses when administered to mammals. These compounds were tested for hypotensive activity by the method of P. S. Chan and D. W. Poorvin, Clinical and Experimental Hypertension, 1 (6), 817-830 (1979). Male, 16 week old, spontaneously hypertensive rats of the Okamoto strain having an average mean arterial blood pressure of 160±1.5 mm of mercury are used in the test. One to three rats are used per test compound. A rat is dosed by gavage with a test compound, suspended in 2% pre-boiled starch at a concentration of 50 mg/ml, at a dose of 100 mg/kg of body weight or less, with 0.9% sodium chloride loading at a dose of 25 ml/kg of body weight. A second identical dose of the test compound, without sodium chloride loading is given 24 hours later. At 28 hours after the initial dose the mean arterial blood pressure is measured by the method of Chan and Poorvin vide supra. The procedure is repeated in a second and third rat when necessary.

[4] = system: clonic seizures caused by pentylenetetrazole in rats; test: Protection against clonic seizures caused by pentylenetetrazole in rats; format: in vivo, rat; settings: 25 mg/kg, oral or intraperitoneal; pentylenetetrazole 23 mg/kg i.v. at 30 or 60 minutes; active if >=50% protected
Description: The antianxiety properties of the novel compounds of the present invention have been established in a test which indicates anxiolytic activity by the measure of protection from convulsions resulting from the administration of pentylenetetrazole. Single or graded dose levels of the test compounds were administered orally or intraperitoneally in a 2% starch vehicle containing 0.5% v/v polyethylene glycol and one drop of polysorbate 80, or distilled water and one drop of polysorbate 80 to groups of at least 4 rats. At 30 or 60 minutes, the rats were treated intravenously with pentylenetetrazole at a dose of 23 mg/kg of body weight. This dose is estimated to cause clonic seizures in 99% of unprotected rats. The test compounds are considered active if they protect 50% or more of the rats from clonic seizures. It has been reported [R. T. Hill and D. H. Tedeschi, "Animal Testing and Screening Procedures in Evaluating Psychotropic Drugs" in "An Introduction to Psychopharmacology", pp. 237-288 (Eds. R. R. Rech and K. E. Moore, Raven Press, New York, 1971) that there is a high degree of correlation between antagonism of pentylenetetrazole seizures in rats and antianxiety effects in higher warm-blooded animals.

[5] = system: Wistar strain male rats (conflict procedure); test: Non-conditioned passive avoidance (conflict) procedure in rats; format: in vivo, rat (Wistar); settings: 25 mg/kg, oral, 60 minutes before test
Description: Another test used to assess antianxiety effects is a non-conditioned passive avoidance procedure described by J. R. Vogel, B. Beer and D. E. Clody, "A Simple and Reliable Conflict Procedure for Testing Antianxiety Agents", Psychopharmacologia, 21:1-7 (1971). A conflict situation is induced in rats by a modification of this method.
Groups of 8 naive, Wistar strain male rats weighing 200-240 g each were deprived of water for 48 hours. The test compounds were administered in single or graded, oral doses, suspended in 2% starch with 5% polyethylene glycol in distilled water and one drop of polysorbate 80. Control animals received the vehicle alone. At 60 minutes each rat was placed in an individual clear plastic chamber. Tap water was available ad libitum from a nipple located in a black box off the main chamber. A 0.7 milliampere AC shocking current was established between the stainless steel grid floor and the tap. After 20 licks of non-shocked drinking, a 2 second shocking current was administered to the rat. This ratio of 20 licks of non-shocked drinking followed by a 2 second shock was continued for a total of 3 minutes. The number of shocks taken by each rat during the 3 minute interval was recorded and compared to a control group. […]

Row | SMILES | % Inhibition of 3H-benzodiazepine binding [1] | MABP/mm Hg (no. of rats) [3] | further results
1 | N#Cc1cnn2c1NCC=C2c1cccc(C(F)(F)F)c1 [4,5-Dihydro-7-[3-(trifluoromethyl)phenyl]pyrazolo[1,5-a]pyrimidine-3-carbonitrile] | 15% | – | –
2 | CC1=C(c2cccc(C(F)(F)F)c2)n2ncc(C#N)c2NC1 [4,5-Dihydro-6-methyl-7-[3-(trifluoromethyl)phenyl]pyrazolo[1,5-a]pyrimidine-3-carbonitrile] | – | – | Mean Duration (Seconds) of immobility [2]: 55.0 s
3 | NC(=O)c1cnn2c1NCCC2 [4,5,6,7-Tetrahydropyrazolo[1,5-a]pyrimidine-3-carboxamide] | – | 137 mm Hg | –
4 | FC(F)(F)c1cccc(C2=CCNc3c(Cl)cnn32)c1 [3-Chloro-4,5-dihydro-7-[3-(trifluoromethyl)phenyl]pyrazolo[1,5-a]pyrimidine] | 63% | – | –
5 | O=C(c1ccccc1)c1cnn2c1NCC=C2c1cccc(C(F)(F)F)c1 [[4,5-Dihydro-7-[3-(trifluoromethyl)phenyl]pyrazolo[1,5-a]pyrimidin-3-yl]phenylmethanone] | 76% | 122 mm Hg | % of Rats Protected (against clonic seizures) [4]: 75%; Result (no. of shocks per 3 min.) [5]: 19.1 no. of shocks per 3 min.
6 | Cc1nn2c(c1C(N)=O)NCC=C2c1cc(Cl)ccc1Cl [7-(2,5-Dichlorophenyl)-4,5-dihydro-2-methylpyrazolo[1,5-a]pyrimidine-3-carboxamide] | – | 95 mm Hg | –
7 | NC(=O)c1cnn2c1NCC=C2c1ccccc1 [4,5-Dihydro-7-phenylpyrazolo[1,5-a]pyrimidine-3-carboxamide] | – | – | % of Rats Protected (against clonic seizures) [4]: 50%
8 | CC1CC(c2cccc(Cl)c2)n2ncc(C#N)c2N1 (stereo not drawn) [7-(3-Chlorophenyl)-4,5,6,7,-tetrahydro-5-methylpyrazolo[1,5-a]pyrimidine-3-carbonitrile] | – | – | Mean Duration (Seconds) of immobility [2]: 75.4 s
9 | N#Cc1cnn2c1NCCC2c1cccc(C(F)(F)F)c1 (stereo not drawn) [4,5,6,7-Tetrahydro-7-[3-(trifluoromethyl)phenyl]pyrazolo[1,5-a]pyrimidine-3-carbonitrile] | – | 128 mm Hg | –
10 | CCOC(=O)c1cnn2c1NCC=C2c1ccccc1 [4,5-Dihydro-7-phenylpyrazolo[1,5-a]pyrimidine-3-carboxylic acid, ethyl ester] | 54% | – | –
11 | NC(=O)c1cnn2c1NCC=C2c1cccc(F)c1 [7-(3-Fluorophenyl)-4,5-dihydropyrazolo[1,5-a]pyrimidine-3-carboxamide] | 39% | – | –
12 | NC(=O)c1cnn2c1NCC=C2c1cccc(C(F)(F)F)c1 [4,5-Dihydro-7-[3-(trifluoromethyl)phenyl]pyrazolo[1,5-a]pyrimidine-3-carboxamide] | – | 108 mm Hg | –
13 | CC1=C(c2cccc(Cl)c2)n2ncc(C#N)c2NC1 [7-(3-Chlorophenyl)-4,5-dihydro-6-methylpyrazolo[1,5-a]pyrimidine-3-carbonitrile] | – | – | Mean Duration (Seconds) of immobility [2]: 66.7 s
14 | CCOC(=O)c1cnn2c1NCC=C2c1cccc(C(F)(F)F)c1 [4,5-Dihydro-7-[3-(trifluoromethyl)phenyl]pyrazolo[1,5-a]pyrimidine-3-carboxylic acid, ethyl ester] | 90% | – | –
15 | N#Cc1cnn2c1NCC=C2c1ccccc1 [4,5-Dihydro-7-phenylpyrazolo[1,5-a]pyrimidine-3-carbonitrile] | 20% | – | –
16 | CC1CC(c2ccc(Cl)cc2)n2ncc(C#N)c2N1 (stereo not drawn) [7-(4-Chlorophenyl)-4,5,6,7-tetrahydro-5-methylpyrazolo[1,5-a]pyrimidine-3-carbonitrile] | – | – | Mean Duration (Seconds) of immobility [2]: 4.7 s
17 | O=C(c1ccccc1)c1cnn2c1NCCC2c1ccncc1 (stereo not drawn) [Phenyl[4,5,6,7-tetrahydro-7-(4-pyridinyl)pyrazolo[1,5-a]pyrimidin-3-yl]methanone] | 22% | 125 mm Hg | –
18 | FC(F)(F)c1cccc(C2=CCNc3ccnn32)c1 [4,5-Dihydro-7-[3-(trifluoromethyl)phenyl]pyrazolo[1,5-a]pyrimidine] | 48% | – | –
19 | N#Cc1cnn2c1NCC=C2c1ccc(Cl)c(Cl)c1 [7-(3,4-Dichlorophenyl)-4,5-dihydropyrazolo[1,5-a]pyrimidine-3-carbonitrile] | 12% | – | –
20 | CC(C)(C)C(=O)c1cnn2c1NCCC2 [2,2-Dimethyl-1-(4,5,6,7-tetrahydropyrazolo[1,5-a]pyrimidin-3-yl)-1-propanone] | 28% | 114 mm Hg | –
21 | CN1CC=C(c2cccc(C(F)(F)F)c2)n2ncc(C#N)c21 [4,5-Dihydro-4-methyl-7-[3-(trifluoromethyl)phenyl]pyrazolo[1,5-a]pyrimidine-3-carbonitrile] | 12% | – | Result (no. of shocks per 3 min.) [5]: 19.0 no. of shocks per 3 min.
